Data set [1] deals with T1, Protein deacetylase HDAC6 (Homo sapiens, UniProt Q9UBN7).
T1 sequence (Q9UBN7 whole entry): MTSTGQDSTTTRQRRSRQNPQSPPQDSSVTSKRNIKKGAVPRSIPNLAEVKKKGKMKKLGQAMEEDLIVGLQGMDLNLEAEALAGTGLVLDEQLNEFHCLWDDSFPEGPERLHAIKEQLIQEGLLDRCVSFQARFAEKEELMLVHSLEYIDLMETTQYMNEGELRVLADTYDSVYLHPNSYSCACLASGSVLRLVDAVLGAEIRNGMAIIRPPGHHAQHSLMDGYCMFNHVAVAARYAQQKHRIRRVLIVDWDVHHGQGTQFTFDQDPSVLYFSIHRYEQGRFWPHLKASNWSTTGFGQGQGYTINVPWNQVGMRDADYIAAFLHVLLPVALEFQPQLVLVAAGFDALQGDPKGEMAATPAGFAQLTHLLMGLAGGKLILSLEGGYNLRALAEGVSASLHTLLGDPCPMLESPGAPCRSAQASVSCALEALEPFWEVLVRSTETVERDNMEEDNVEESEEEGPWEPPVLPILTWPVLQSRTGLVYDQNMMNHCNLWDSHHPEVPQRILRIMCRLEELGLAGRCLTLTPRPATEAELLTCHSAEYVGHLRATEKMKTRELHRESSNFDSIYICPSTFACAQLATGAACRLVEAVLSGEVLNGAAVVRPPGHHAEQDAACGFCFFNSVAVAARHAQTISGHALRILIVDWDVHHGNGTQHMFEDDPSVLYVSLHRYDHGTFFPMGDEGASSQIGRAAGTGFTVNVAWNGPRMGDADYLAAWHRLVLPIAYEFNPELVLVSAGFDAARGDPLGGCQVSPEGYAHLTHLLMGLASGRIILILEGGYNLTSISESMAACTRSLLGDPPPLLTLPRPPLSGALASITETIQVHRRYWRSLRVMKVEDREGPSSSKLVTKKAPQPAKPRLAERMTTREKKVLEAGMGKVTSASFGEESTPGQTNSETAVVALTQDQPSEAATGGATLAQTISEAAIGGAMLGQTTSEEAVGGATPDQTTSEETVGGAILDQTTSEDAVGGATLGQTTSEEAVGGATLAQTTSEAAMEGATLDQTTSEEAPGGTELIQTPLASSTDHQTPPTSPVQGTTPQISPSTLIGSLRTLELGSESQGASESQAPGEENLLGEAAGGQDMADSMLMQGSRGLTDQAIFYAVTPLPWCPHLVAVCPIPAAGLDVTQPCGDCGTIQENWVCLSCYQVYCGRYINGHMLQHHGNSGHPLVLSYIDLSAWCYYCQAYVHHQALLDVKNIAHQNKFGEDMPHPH
Briefly: Inhibition of recombinant human full length HDAC6 using Boc-Lys (Ac)-AMC as substrate incubated for 120 mins by fluorescence analysis.

The target of data set [2] is Histone deacetylase 1 (Homo sapiens, UniProt Q13547). Briefly: Inhibition of C-terminal His6/Flag-tagged recombinant human full length HDAC1 using Boc-Lys (Ac)-AMC as substrate incubated for 120 mins by fluorescence analysis.
Chain of Histone deacetylase 1 (Q13547 whole entry): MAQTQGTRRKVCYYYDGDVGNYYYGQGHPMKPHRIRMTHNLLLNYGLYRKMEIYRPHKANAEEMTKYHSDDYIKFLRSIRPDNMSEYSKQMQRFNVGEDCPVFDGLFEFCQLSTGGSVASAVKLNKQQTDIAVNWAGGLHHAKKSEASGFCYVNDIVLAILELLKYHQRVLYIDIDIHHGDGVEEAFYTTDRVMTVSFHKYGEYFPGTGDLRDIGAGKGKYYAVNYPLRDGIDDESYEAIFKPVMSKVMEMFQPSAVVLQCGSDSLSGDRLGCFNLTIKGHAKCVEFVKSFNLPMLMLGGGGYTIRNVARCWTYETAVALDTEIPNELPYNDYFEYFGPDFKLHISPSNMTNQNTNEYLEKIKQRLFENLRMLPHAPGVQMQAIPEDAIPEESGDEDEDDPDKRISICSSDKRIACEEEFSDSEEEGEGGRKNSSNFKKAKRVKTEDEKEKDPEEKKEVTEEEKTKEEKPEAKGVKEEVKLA
Data set [3] concerns the target Histone deacetylase 2 (Homo sapiens, UniProt Q92769). Briefly: Inhibition of recombinant human full length HDAC2 using Boc-Lys (Ac)-AMC as substrate incubated for 120 mins by fluorescence analysis.
For data set [4], the target named is Histone deacetylase 4 (Homo sapiens, UniProt P56524). Briefly: Inhibition of recombinant human HDAC4 using Boc-Lys (Ac)-AMC as substrate incubated for 120 mins by fluorescence analysis.
Chain of Histone deacetylase 4 (P56524 whole entry): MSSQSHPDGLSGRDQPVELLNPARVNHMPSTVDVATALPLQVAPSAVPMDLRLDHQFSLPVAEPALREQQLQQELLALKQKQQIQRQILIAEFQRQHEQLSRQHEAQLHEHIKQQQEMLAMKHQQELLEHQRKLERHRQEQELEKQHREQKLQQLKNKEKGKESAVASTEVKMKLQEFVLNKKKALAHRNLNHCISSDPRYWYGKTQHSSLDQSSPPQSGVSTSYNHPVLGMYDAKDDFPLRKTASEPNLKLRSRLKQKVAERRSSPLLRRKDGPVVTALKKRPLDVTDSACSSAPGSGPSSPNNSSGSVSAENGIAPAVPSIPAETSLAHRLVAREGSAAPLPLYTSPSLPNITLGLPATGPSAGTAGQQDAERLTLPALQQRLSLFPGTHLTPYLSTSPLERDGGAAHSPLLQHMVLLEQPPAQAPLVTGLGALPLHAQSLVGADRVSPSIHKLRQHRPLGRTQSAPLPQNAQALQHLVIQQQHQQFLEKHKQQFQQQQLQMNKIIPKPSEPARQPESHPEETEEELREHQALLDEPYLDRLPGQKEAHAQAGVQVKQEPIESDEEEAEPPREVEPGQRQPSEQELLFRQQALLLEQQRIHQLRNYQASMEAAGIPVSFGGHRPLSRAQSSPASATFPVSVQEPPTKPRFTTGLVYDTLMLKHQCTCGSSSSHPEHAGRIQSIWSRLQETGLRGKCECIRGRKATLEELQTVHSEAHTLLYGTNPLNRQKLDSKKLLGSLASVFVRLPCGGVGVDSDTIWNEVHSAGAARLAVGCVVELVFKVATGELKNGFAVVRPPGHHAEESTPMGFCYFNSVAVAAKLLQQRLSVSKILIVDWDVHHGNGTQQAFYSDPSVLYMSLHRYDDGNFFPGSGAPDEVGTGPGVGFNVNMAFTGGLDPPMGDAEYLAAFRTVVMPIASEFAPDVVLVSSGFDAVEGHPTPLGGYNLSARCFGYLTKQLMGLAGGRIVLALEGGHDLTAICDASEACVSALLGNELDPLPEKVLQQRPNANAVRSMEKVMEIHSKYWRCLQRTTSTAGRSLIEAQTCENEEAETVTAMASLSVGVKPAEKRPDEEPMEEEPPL
The target in data set [5] is T2, Histone deacetylase 7 (Homo sapiens, UniProt Q8WUI4).
T2 sequence (Q8WUI4 whole entry): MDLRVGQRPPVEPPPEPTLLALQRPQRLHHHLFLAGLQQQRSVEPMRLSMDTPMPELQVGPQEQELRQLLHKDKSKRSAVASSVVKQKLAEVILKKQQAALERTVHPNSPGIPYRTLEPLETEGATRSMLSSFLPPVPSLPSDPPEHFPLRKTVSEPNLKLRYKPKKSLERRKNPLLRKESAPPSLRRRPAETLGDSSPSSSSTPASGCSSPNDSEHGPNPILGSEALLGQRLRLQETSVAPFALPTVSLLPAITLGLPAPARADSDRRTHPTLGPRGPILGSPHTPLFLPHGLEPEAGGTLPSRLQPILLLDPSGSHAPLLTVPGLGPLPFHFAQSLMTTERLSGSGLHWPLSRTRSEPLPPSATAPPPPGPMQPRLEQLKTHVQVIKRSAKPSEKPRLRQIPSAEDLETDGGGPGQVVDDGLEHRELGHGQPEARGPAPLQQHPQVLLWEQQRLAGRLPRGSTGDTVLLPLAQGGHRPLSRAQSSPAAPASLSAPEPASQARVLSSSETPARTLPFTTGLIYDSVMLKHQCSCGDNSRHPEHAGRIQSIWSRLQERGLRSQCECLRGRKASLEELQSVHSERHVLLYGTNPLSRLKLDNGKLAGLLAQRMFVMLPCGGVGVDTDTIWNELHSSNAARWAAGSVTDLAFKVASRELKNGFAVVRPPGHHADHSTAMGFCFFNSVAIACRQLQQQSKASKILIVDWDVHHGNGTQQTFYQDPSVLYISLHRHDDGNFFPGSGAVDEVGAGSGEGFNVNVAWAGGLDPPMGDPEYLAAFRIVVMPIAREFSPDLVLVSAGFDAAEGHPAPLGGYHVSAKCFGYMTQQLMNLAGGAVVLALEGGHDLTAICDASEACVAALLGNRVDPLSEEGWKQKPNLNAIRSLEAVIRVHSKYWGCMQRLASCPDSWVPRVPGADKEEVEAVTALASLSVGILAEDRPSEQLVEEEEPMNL
Briefly: Inhibition of N-terminal GST-tagged recombinant human HDAC7 (518 to end residues) expressed in baculovirus expression system using Boc-Lys (Tfa)-AMC as substrate incubated for 120 mins by fluorescence analysis.

Data set [6] has as its target T3, Polyamine deacetylase HDAC10 (Homo sapiens, UniProt Q969S8).
T3 sequence (Q969S8 whole entry): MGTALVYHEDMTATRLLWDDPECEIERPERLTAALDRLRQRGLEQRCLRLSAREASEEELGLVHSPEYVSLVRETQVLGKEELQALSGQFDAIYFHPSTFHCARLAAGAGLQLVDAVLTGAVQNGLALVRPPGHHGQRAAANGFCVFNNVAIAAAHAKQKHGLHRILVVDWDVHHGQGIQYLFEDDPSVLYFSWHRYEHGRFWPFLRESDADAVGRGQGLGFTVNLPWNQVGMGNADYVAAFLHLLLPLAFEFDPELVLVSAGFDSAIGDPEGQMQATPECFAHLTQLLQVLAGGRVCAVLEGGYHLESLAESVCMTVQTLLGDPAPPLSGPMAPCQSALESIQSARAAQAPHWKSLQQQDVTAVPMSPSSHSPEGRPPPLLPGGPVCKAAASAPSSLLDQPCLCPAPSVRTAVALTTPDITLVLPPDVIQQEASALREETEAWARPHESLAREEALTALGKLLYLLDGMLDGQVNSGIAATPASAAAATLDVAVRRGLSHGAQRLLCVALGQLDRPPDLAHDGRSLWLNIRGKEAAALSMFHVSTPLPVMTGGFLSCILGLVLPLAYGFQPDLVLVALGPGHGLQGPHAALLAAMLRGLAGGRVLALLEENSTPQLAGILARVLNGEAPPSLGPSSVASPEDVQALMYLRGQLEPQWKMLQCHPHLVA
Briefly: Inhibition of N-terminal FLAG-tagged recombinant human HDAC10 (2 to 631 residues) expressed in baculovirus sf9 insect cells expression system using Boc-Lys (Ac)-AMC as substrate incubated for 120 mins by fluorescence analysis.

Data set [7] concerns the target T4, Histone deacetylase 11 (Homo sapiens, UniProt Q96DB2).
T4 sequence (Q96DB2 whole entry): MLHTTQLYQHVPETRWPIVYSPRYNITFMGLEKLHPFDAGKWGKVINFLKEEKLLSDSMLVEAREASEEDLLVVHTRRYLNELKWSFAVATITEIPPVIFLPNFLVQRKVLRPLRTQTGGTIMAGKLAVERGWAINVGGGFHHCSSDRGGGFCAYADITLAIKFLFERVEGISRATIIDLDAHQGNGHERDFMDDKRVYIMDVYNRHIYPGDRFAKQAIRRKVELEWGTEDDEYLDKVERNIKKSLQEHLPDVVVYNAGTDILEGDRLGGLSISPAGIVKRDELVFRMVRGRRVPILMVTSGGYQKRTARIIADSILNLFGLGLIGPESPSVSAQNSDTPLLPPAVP
Briefly: Inhibition of recombinant human full length HDAC11 using Boc-Lys (Tfa)-AMC as substrate incubated for 120 mins by fluorescence analysis.

For data set [8], the species on record is Homo sapiens. Briefly: Selectivity index, ratio IC50 for C-terminal His6/Flag-tagged recombinant human full length HDAC1 to IC50 for inhibition of recombinant human full length HDAC6.
Data set [9] can be described thus: Half life in human liver microsomes at 100 uM by LC-MS/MS analysis. The format is ADME, Microsome.

Bounds are passed on as bounds.

Chain of Histone deacetylase 2 (Q92769 whole entry): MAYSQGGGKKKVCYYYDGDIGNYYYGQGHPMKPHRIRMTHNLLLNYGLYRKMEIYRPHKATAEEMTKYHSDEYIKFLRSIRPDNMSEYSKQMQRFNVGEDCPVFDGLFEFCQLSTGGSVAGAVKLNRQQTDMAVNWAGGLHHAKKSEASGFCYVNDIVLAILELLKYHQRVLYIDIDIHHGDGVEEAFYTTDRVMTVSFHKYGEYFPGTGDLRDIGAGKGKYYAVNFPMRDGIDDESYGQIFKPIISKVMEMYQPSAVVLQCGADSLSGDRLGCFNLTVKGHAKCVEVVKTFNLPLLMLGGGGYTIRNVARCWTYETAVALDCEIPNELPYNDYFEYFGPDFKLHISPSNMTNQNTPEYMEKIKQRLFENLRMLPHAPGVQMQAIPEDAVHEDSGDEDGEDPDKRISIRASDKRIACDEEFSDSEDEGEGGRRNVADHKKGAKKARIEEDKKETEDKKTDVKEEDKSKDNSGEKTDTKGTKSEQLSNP

Consider `COc1cc2c(cc1OCc1ccccc1)CN1C(=O)CC[C@H]1C(=O)N2CCCCCCCC(=O)NO`, for which, in [1], the IC50 was 275 nM.

For `COc1cc2c(cc1OCc1ccccc1)CN1C(=O)CC[C@H]1C(=O)N2Cc1cccc(C(=O)NO)c1`, the IC50 in [1] worked out at 181 nM.

As for `COc1cc2c(cc1O)CN1C(=O)CC[C@H]1C(=O)N2Cc1ccc(C(=O)NO)cc1`, in [1], the IC50 came to 126 nM.

With `COc1cc2c(cc1O)CN1C(=O)CC[C@H]1C(=O)N2Cc1cccc(C(=O)NO)c1`, the IC50 in [1] stood at 296 nM.

For the compound `COc1cc2c(cc1OCc1ccccc1)CN1C(=O)CC[C@H]1C(=O)N2Cc1ccc(CC(=O)NO)cc1`, the IC50 in [1] was 22.3 nM.

`O=C(CCCCCN1C(=O)[C@@H]2CCCN2Cc2ccccc21)NO`: the IC50 is 8.45 nM in [1]; 437 nM in data set [2]; 2680 nM in [3]; 499 nM in [4]; 731 nM in [5]; 961 nM in [6]. Also, the IC50 in [7] is over 50000 nM. Further, in data set [8], the Ratio IC50 was 51.7.

As to `COc1cc2c(cc1O)CN1C(=O)CC[C@H]1C(=O)N2CCCCCCC(=O)NO`, in data set [1], the concentration for half-maximal inhibition (IC50) was determined as 13.5 nM.

Turning to `COc1cc2c(cc1O)CN1C(=O)CC[C@H]1C(=O)N2CCCCCCCC(=O)NO`, the IC50 in data set [1] turned out to be 176 nM.

Regarding `O=C(Cc1ccc(CN2C(=O)[C@@H]3CCCN3Cc3ccccc32)cc1)NO`, in data set [1], the IC50 was found to be 288 nM.

Consider `COc1cc2c(cc1OCc1ccccc1)CN1C(=O)CC[C@H]1C(=O)N2CCCCCCC(=O)NO`, for which the 50% inhibitory concentration (IC50) in data set [1] worked out at 12.1 nM.

Consider `COc1cc2c(cc1OCc1ccccc1)CN1C(=O)CC[C@H]1C(=O)N2Cc1ccc(C(=O)NO)cc1`, for which, in data set [1], the half-inhibitory concentration (IC50) was 21.2 nM.

In the case of `COc1cc2c(cc1O)CN1C(=O)CC[C@H]1C(=O)N2CCCCCC(=O)NO`, the IC50 in [1] was found to be 15.6 nM.

`O=C(CCCCCCN1C(=O)[C@@H]2CCCN2Cc2ccccc21)NO`: the IC50 in data set [1] is 294 nM.

As for `O=C(NO)c1ccccc1CN1C(=O)[C@@H]2CCCN2Cc2ccccc21`, in data set [1], the IC50 is over 300 nM.

`COc1cc2c(cc1O)CN1C(=O)CC[C@H]1C(=O)N2Cc1ccccc1C(=O)NO`: the IC50 in data set [1] came to 279 nM.

Consider `O=C(NO)c1cccc(CN2C(=O)[C@@H]3CCCN3Cc3ccccc32)c1`, for which the IC50 in data set [1] was over 300 nM.

For the compound `O=C(CCCCCCCN1C(=O)[C@@H]2CCCN2Cc2ccccc21)NO`, the IC50 in [1] came to 291 nM.

As to `O=C(O)Cc1ccccc1Nc1c(Cl)cccc1Cl` [DICLOFENAC], the half-life at 100 µM in data set [9] amounted to 5.3 min.

With `COc1cc2c(cc1OCc1ccccc1)CN1C(=O)CC[C@H]1C(=O)N2Cc1ccccc1C(=O)NO`, the IC50 in [1] stood at 204 nM.

Regarding `COc1cc2c(cc1OCc1ccccc1)CN1C(=O)CC[C@H]1C(=O)N2CCCCCC(=O)NO`, in [1], the IC50 was found to be 17.4 nM.

The values are drawn from ChEMBL document CHEMBL5584244, “Discovery of novel pyrrolo[2,1-c][1,4]benzodiazepine-3,11-dione (PBD) derivatives as selective HDAC6 inhibitors for the efficient treatment of idiopathic pulmonary fibrosis (IPF) in vitro and in vivo” (Eur J Med Chem, 2024).
